Experimental data reported in patent US9889182B2, “Assisted enzyme replacement therapy” (The Regents of the University of California, priority 2009, dated 2018).
Marks after values point to notes of the source that are not given here.

Tests used:
[1] = tested on: 10T1/2 cells; assay: FACS cellular uptake of BODIPY conjugates in 10T1/2 cells; type: cell-based, mouse; settings: for Mean Fluorescence Intensity of treated cells according to FACS, 10T1/2: 0.5 μM of each compound for 1 hr, average of 10,000 cells; for cellular uptake compared to poly-Arg peptide BODIPY-Cys(Arg)9 / cellular uptake: FACS; for cellular uptake compared to poly-Arg peptide BODIPY-Cys(Arg)9: Table 1; for cellular uptake: slightly above autofluorescence of the cell
Procedure: (§1) 10T1/2 cells, an adherent non-transformed mouse fibroblast cell line, and HeLa cells, a common human cancer cell line, were purchased from ATCC and used before their 20th passage. Both cell lines were cultured in Dulbecco's modified eagle medium containing 10% fetal bovine serum at 37° C. in an 8% CO2 environment. For each experiment, cells were seeded onto 4 cm tissue culture plates (Nunc) and allowed to grow overnight to ˜80% confluency.
(§2) Compounds 1-5 identified in Table 1, below (0.5-1 μM), were added to each dish and incubated at 37° C./8% CO2 for 0.5-1 hr. Cells were then washed once in PBS, trypsinized with 500 μl ATV solution (Gibco) for 3 minutes, pelleted in a fixed angle centrifuge for 5 minutes at 5,000×G, then brought up in 1 mL PBS. Each sample was quickly (within 5 minutes) analyzed on a FACS VantageSE cell sorter (Becton-Dickinson) using the 488 nm argon/krypton laser line and a 530 nm band pass emission filter. 2,000-10,000 cells were counted per sample.

[2] = tested on: HeLa cells; assay: FACS cellular uptake of BODIPY conjugates in HeLa cells; type: cell-based, human; settings: 1 μM of each compound for 0.5 hr; average of 2,000 cells; about 10-fold higher instrumental gain than 10T1/2
Procedure: as §1, §2

[3] = tested on: WT CHO-K1 cells; assay: Competition of guanidinoneomycin construct uptake by model glycans; type: cell-based, Chinese hamster
[4] = tested on: Wild-type CHO cells; assay: Live-cell uptake of fluorescent guanidinoneomycin conjugate (streptavidin-Alexa-488), microscopy; type: cell-based, Chinese hamster; settings: 0.4 M sucrose; 5 mM amiloride
Procedure: Microscopy—Cells were cultured on Lab-Tek chambered coverglass slides (Electron Microscopy Sciences) in F12 medium. After washing with PBS, cells were incubated for 1 h in 1 ml of 60 nM guanidinoneomycin coupled to streptavidin-Alexa-488 (Molecular Probes) at 37° C. Guanidinoneomycin-A488 was prepared by incubating 1 μM guanidinoneomycinbiotin with 6 μg of streptavidin-Alexa-488 in 1 ml of medium. Hoechst 33342 (2 μg/ml; Molecular Probes) was added to cells for the last 20 min of incubation. Cells were washed three times with F12 medium before live cell imaging. Microscopic images were acquired on an Olympus IX70 DeltaVision Spectris Image Deconvolution system, equipped with a temperature and atmospherically controlled stage. Images were deconvolved (10 cycles) using SoftWoRx Explorer Suite software.

[5] = tested on: MPS VII fibroblasts; assay: [35S]glycosaminoglycan turnover, label-chase, MPS VII fibroblasts; type: cell-based, human; settings: enzyme 2 hours, chase 24 hours
Procedure: (§3) To test whether internalized GUS was functionally localized in lysosomes, a label-chase format was used in which cells were incubated with ^35S-labeled sulfate for 24 hours to radiolabel the sulfated glycosaminoglycans. The medium was changed, and after 24 hours, the amount of [^35S]glycosaminoglycans that remained associated with the cells was quantitated. Normal and MPS fibroblasts were incubated in DMEM/F12 medium supplemented with 10% dialyzed fetal bovine serum in order to increase the radiospecific activity of added ^35S4. Cells were seeded in a 12-well plate, and at confluence, 50 μCi of Na[^35S]O4 (PerkinElmer) was added in 1 ml of fresh medium. After 24 hours, the cells were rinsed twice with PBS, exposed to GUS or α-iduronidase for 2 hours, rinsed twice, and then chased for 24 hours in complete growth medium. The cells were harvested with trypsin, centrifuged (500 g, 5 minutes), and washed once. The sedimented cells were then resuspended in 100 μl of RIPA buffer (Sigma) and counted by liquid scintillation spectrometry using Scintillator Ultima Gold XR (PerkinElmer).

[6] = tested on: MPS VII fibroblasts; assay: Uptake of GUS enzymes by MPS VII fibroblasts (β-glucuronidase activity); type: cell-based, human
Procedure: GUS activity was measured by assaying the conversion of 4-methylumbelliferyl β-d-glucuronide (MUG; Sigma) into the fluorochrome 4-methylumbelliferone. The assay was performed in 96-well plates, using 100 μl of reaction buffer containing 50 mmol/L sodium acetate (pH 5.2), 10 mmol/L EDTA, 0.01% bovine serum albumin, 0.1% Triton X-100, […] of MUG, and enzyme. After 1 hour at 37° C., fluorescent product was measured by fluorimetry (excitation at 360 nm, emission at 460 nm) and quantified using a standard curve of 4-methylumbelliferone. One unit (U) of activity is defined as the liberation of […] of 4-methylumbelliferone per hour at pH 5.2, 37° C. α-1-iduronidase activity was measured in a similar way using 4-methylumbelliferyl α-1-iduronide (Glycosynth, Warrington, UK) as substrate. The assay was performed in 10 μl of 50 mmol/L sodium formate (pH 3) buffer containing 10 mmol/L NaCl, 0.1 mg/ml bovine serum albumin, 50 μmol/l substrate, and 2 μl of enzyme.
To test whether GNeo-bGus was taken up by GUS-deficient cells, enzyme activity was measured in MPR VII fibroblasts after 2-hour incubation with various concentrations of unmodified bGus and G-Neo-bGus (see FIG. 15a). Normal HFF, MPS VII, and MPS I fibroblasts were cultured in Earl's Minimal Essential Medium supplemented with 15% of fetal bovine serum and penicillin/streptomycin (Invitrogen). Approximately 8×10^4 cells in 0.4 ml of medium were seeded in each well of a 24-well plate. After 3 days, cells were incubated in fresh medium with and without 5 mmol/L of M6P or glucose 6-phosphate (G6P) (Sigma). The cells were incubated for 2 hours at 37° C., washed twice with PBS, treated with trypsin/EDTA, and then combined with complete medium to inhibit the trypsin. […] In some experiments, cells were treated 3 hours with recombinant heparin lyases I, II, and III (5 mU/ml) in serum-free medium, and uptake was measured as described above in medium containing heparinases. Enzyme activity in the cell extracts was measured in triplicate using 5 μg of total cell protein. […]

[7] = tested on: MPS I fibroblasts; assay: [35S]glycosaminoglycan turnover, label-chase, MPS I fibroblasts; type: cell-based, human; settings: enzyme 2 hours, chase 24 hours
Procedure: as §3

“guanidino-tobra-BODIPY [Guanidino-Tobra-BODIPY (2)]” was tested, and the “Mean Fluorescence Intensity of treated cells according to FACS, 10T1/2” value (from here on “Mean Fluorescence Intensity … to FACS, 10T1/2”) [1] was 240, the “cellular uptake compared to poly-Arg peptide BODIPY-Cys(Arg)9” value [1] was “approximately the same transport efficiency” and the “Mean Fluorescence Intensity of treated cells according to FACS, HeLa” value (“Mean Fluorescence Intensity … HeLa” below) [2] was 2,100.

neo-BODIPY [Neo-BODIPY (3)] was tested, and the “Mean Fluorescence Intensity … to FACS, 10T1/2” value [1] was 60, the “cellular uptake” value [1] was “poor cellular uptakes” and the “Mean Fluorescence Intensity … HeLa” value [2] was ~1,400^(e).

“dermatan sulfate [Dermatan sulfate, DS (G)]” was tested, and the “inhibition of cellular uptake of either construct (words)” value ([3]; listed as Dermatan sulfate) was “failed to inhibit” and the “inhibition of cellular uptake of either construct (words)” value ([3]; listed as dermatan sulfate) was “no significant inhibition”.

In the case of `N=C(N)NC(=O)c1nc(Cl)c(N)nc1N` [amiloride], the “effect on internalization of fluorescent guanidinoneomycin conjugate” value [4] is reported as “no effect”.

In the case of tobra-BODIPY [Tobra-BODIPY (1)], the “Mean Fluorescence Intensity … to FACS, 10T1/2” value [1] is reported as 60, the “cellular uptake” value [1] is reported as “poor cellular uptakes” and the “Mean Fluorescence Intensity … HeLa” value [2] is reported as 1,000.

`NC[C@H]1O[C@H](O[C@H]2[C@H](O)[C@@H](O[C@H]3O[C@H](CO)[C@@H](O)[C@H](N)[C@H]3O)[C@H](N)C[C@@H]2N)[C@H](N)C[C@@H]1O` [tobramycin, reference compound] was tested, and the “enhancement of cellular uptake upon guanidinylation” value ([1]; relative to autofluorescence, BODIPY conjugates, FIG. 3 and Table 1) was “approximately 10 fold”.

“BODIPY-Cys(Arg)9 (CRRRRRRRRR; N-acetyl, C-amide, BODIPY label on Cys) [BODIPY-Cys (Arg)9 (5), common poly-Arg transduction peptide, reference compound]” was tested, and the “Mean Fluorescence Intensity, 10T1/2, in presence of 10 μM (6)” value ([1]; 0.5 μM BODIPY-Cys(Arg)9 + 10 μM guanidine-neomycin B (6), 1 hr) was 110, the “Mean Fluorescence Intensity, 10T1/2, in presence of 50 μM (6)” value ([1]; 0.5 μM BODIPY-Cys(Arg)9 + 50 μM guanidine-neomycin B (6), 1 hr) was 90 and the “Mean Fluorescence Intensity, 10T1/2, in presence of 200 μM (6)” value ([1]; 0.5 μM BODIPY-Cys(Arg)9 + 200 μM guanidine-neomycin B (6), 1 hr) was 70. For the same molecule, the “Mean Fluorescence Intensity … to FACS, 10T1/2” value [1] was 280 and the “Mean Fluorescence Intensity … HeLa” value [2] was 2,000.

`OC[C@H]1O[C@@](CO)(O[C@H]2O[C@H](CO)[C@@H](O)[C@H](O)[C@H]2O)[C@@H](O)[C@@H]1O` [sucrose] was tested, and the “effect on internalization of fluorescent guanidinoneomycin conjugate” value [4] was “marked decrease in internalization”.

“guanidino-Neo-BODIPY [Guanidino-Neo-BODIPY (4)]” was tested, and the “Mean Fluorescence Intensity … to FACS, 10T1/2” value [1] was 430, the “cellular uptake compared to poly-Arg peptide BODIPY-Cys(Arg)9” value [1] was “better cellular uptake” and the “Mean Fluorescence Intensity … HeLa” value [2] was 7,900.

B1: hGUS: human recombinant GUS (protein, UniProt P08236 23-651, looked up)
Beta-glucuronidase: LQGGMLYPQESPSRECKELDGLWSFRADFSDNRRRGFEEQWYRRPLWESGPTVDMPVPSSFNDISQDWRLRHFVGWVWYEREVILPERWTQDLRTRVVLRIGSAHSYAIVWVNGVDTLEHEGGYLPFEADISNLVQVGPLPSRLRITIAINNTLTPTTLPPGTIQYLTDTSKYPKGYFVQNTYFDFFNYAGLQRSVLLYTTPTTYIDDITVTTSVEQDSGLVNYQISVKGSNLFKLEVRLLDAENKVVANGTGTQGQLKVPGVSLWWPYLMHERPAYLYSLEVQLTAQTSLGPVSDFYTLPVGIRTVAVTKSQFLINGKPFYFHGVNKHEDADIRGKGFDWPLLVKDFNLLRWLGANAFRTSHYPYAEEVMQMCDRYGIVVIDECPGVGLALPQFFNNVSLHHHMQVMEEVVRRDKNHPAVVMWSVANEPASHLESAGYYLKMVIAHTKSLDPSRPVTFVSNSNYAADKGAPYVDVICLNSYYSWYHDYGHLELIQLQLATQFENWYKKYQKPIIQSEYGAETIAGFHQDPPLMFTEEYQKSLLEQYHLGLDQKRRKYVVGELIWNFADFMTEQSPTRVLGNKKGIFTRQRQPKSAAFLLRERYWKIANETRYPHSVAKSQCLENSLFT
For B1, the “ED50, [35S]glycosaminoglycan turnover” value [5] was about 3 mU, the “effect of heparin lyase treatment of cells on uptake” value [6] was “insensitive” and the “effect of M6P on uptake” value ([6]; 5 mmol/l M6P) was “greatly inhibited uptake”. The “uptake” value ([6]; 2-hour incubation) was “robust”.

B2: AP-hGUS: hGUS treated with alkaline phosphatase (protein, UniProt P08236 23-651, looked up)
Beta-glucuronidase: B1 Beta-glucuronidase
modifications: dephosphorylated by alkaline phosphatase
B2 was tested, and the “ED50, [35S]glycosaminoglycan turnover” value [5] was about 300 mU.

B3: GNeo-AP-hGUS: GNeo conjugate of alkaline phosphatase-treated hGUS (conjugate, UniProt P08236 23-651, looked up)
Beta-glucuronidase: B1 Beta-glucuronidase
modifications: GNeo conjugate, dephosphorylated
In the case of B3, the “ED50, [35S]glycosaminoglycan turnover” value [5] is reported as about 10 mU.

B4: Aldurazyme: recombinant therapeutic α-1-iduronidase (protein, UniProt P35475 28-653, looked up)
Alpha-L-iduronidase: APHLVHVDAARALWPLRRFWRSTGFCPPLPHSQADQYVLSWDQQLNLAYVGAVPHRGIKQVRTHWLLELVTTRGSTGRGLSYNFTHLDGYLDLLRENQLLPGFELMGSASGHFTDFEDKQQVFEWKDLVSSLARRYIGRYGLAHVSKWNFETWNEPDHHDFDNVSMTMQGFLNYYDACSEGLRAASPALRLGGPGDSFHTPPRSPLSWGLLRHCHDGTNFFTGEAGVRLDYISLHRKGARSSISILEQEKVVAQQIRQLFPKFADTPIYNDEADPLVGWSLPQPWRADVTYAAMVVKVIAQHQNLLLANTTSAFPYALLSNDNAFLSYHPHPFAQRTLTARFQVNNTRPPHVQLLRKPVLTAMGLLALLDEEQLWAEVSQAGTVLDSNHTVGVLASAHRPQGPADAWRAAVLIYASDDTRAHPNRSVAVTLRLRGVPPGPGLVYVTRYLDNGLCSPDGEWRRLGRPVFPTAEQFRRMRAAEDPVAAAPRPLPAGGRLTLRPALRLPSLLLVHVCARPEKPPGQVTRLRALPLTQGQLVLVWSDEHVGSKCLWTYEIQFSQDGKAYTPVSRKPSTFNLFVFSPDTGAVSGSYRVRALDYWARPGPFSDPVPYLEVPVPRGPPSPGNP
modifications: laronidase
notes: recombinant therapeutic α-1-iduronidase
B4 was tested, and the “ED50, [35S]glycosaminoglycan turnover” value [7] was 1 U.

B5: AP-α-1-iduronidase: α-1-iduronidase treated with alkaline phosphatase (protein, UniProt P35475 28-653, looked up)
Alpha-L-iduronidase: B4 Alpha-L-iduronidase
modifications: dephosphorylated by alkaline phosphatase
notes: α-1-iduronidase treated with alkaline phosphatase
B5 was tested, and the “ED50, [35S]glycosaminoglycan turnover” value [7] was 30 U.

B6: GNeo-AP-α-1-iduronidase: GNeo conjugated to AP-α-1-iduronidase (conjugate, UniProt P35475 28-653, looked up)
Alpha-L-iduronidase: B4 Alpha-L-iduronidase
modifications: GNeo conjugate, dephosphorylated
notes: GNeo conjugated to AP-α-1-iduronidase
With B6 the “ED50, [35S]glycosaminoglycan turnover” value [7] was 0.2 units.
